Test results published in the NIST ThermoML archive (doi:10.1016/j.jct.2011.02.012).
± gives the expanded uncertainty stated by the source.

Columns and labels:
[1] = 101.33 kPa, Liquid, Vibrating tube method
[2] = activity coefficient (dimensionless); of the first substance listed, at infinite dilution; xn = mol fraction of the nth substance listed; settings: Liquid, Chromatography, x1 = 0

| mass density ([1]; 298.15 K) [kg/m3] | mass density ([1]; 308.15 K) [kg/m3] | mass density ([1]; 318.15 K) [kg/m3] | mass density ([1]; 328.15 K) [kg/m3] | mass density ([1]; 338.15 K) [kg/m3] | mass density ([1]; 348.15 K) [kg/m3] | mass density ([1]; 358.15 K) [kg/m3] | activity coefficient ([2]; 298.15 K) | activity coefficient ([2]; 308.15 K) | activity coefficient ([2]; 318.15 K) | activity coefficient ([2]; 328.15 K) | activity coefficient ([2]; 338.15 K) | activity coefficient ([2]; 348.15 K) | activity coefficient ([2]; 358.15 K) | SMILES |
| --- | --- | --- | --- | --- | --- | --- | --- | --- | --- | --- | --- | --- | --- | --- |
| 1036.27 ± 0.26 | 1028.4 ± 0.25 | 1020.64 ± 0.25 | 1012.97 ± 0.24 | 1005.4 ± 0.24 | 997.91 ± 0.23 | 990.51 ± 0.23 | – | – | – | – | – | – | – | CCn1cc[n+](C)c1.N#C[B-](C#N)(C#N)C#N [1-ethyl-3-methylimidazolium tetracyanoborate] |
| – | – | – | – | – | – | – | 60.3 ± 4.1 | 54.3 ± 3.7 | 50.4 ± 3.5 | 46.4 ± 3.2 | 42.3 ± 2.9 | 39.5 ± 2.7 | 36.7 ± 2.5 | CC(C)CC(C)(C)C [2,2,4-trimethylpentane] + CCn1cc[n+](C)c1.N#C[B-](C#N)(C#N)C#N |
| – | – | – | – | – | – | – | 1.58 ± 0.1 | 1.43 ± 0.09 | 1.32 ± 0.09 | 1.21 ± 0.08 | 1.13 ± 0.07 | 1.05 ± 0.07 | 0.986 ± 0.062 | CCO [ethanol] + CCn1cc[n+](C)c1.N#C[B-](C#N)(C#N)C#N |
| – | – | – | – | – | – | – | 8.54 ± 0.58 | 8.32 ± 0.57 | 8.07 ± 0.55 | 7.79 ± 0.53 | 7.6 ± 0.5 | 7.43 ± 0.51 | 7.24 ± 0.49 | CCCOCCC [dipropyl ether] + CCn1cc[n+](C)c1.N#C[B-](C#N)(C#N)C#N |
| – | – | – | – | – | – | – | 83.2 ± 5.7 | 73.6 ± 5 | 67.4 ± 4.6 | 60.2 ± 4.1 | 54.8 ± 3.8 | 50.2 ± 3.4 | 46 ± 3.1 | CCCCCCCC [octane] + CCn1cc[n+](C)c1.N#C[B-](C#N)(C#N)C#N |
| – | – | – | – | – | – | – | 8.66 ± 0.59 | 8.48 ± 0.58 | 8.31 ± 0.57 | 8.15 ± 0.56 | 7.99 ± 0.54 | 7.86 ± 0.54 | 7.73 ± 0.53 | C#CCCCCCC [1-octyne] + CCn1cc[n+](C)c1.N#C[B-](C#N)(C#N)C#N |
| – | – | – | – | – | – | – | 22 ± 1.5 | 20.4 ± 1.4 | 19.3 ± 1.3 | 18.3 ± 1.3 | 17.3 ± 1.2 | 16.6 ± 1.1 | 15.7 ± 1.1 | C=CCCCCC [1-heptene] + CCn1cc[n+](C)c1.N#C[B-](C#N)(C#N)C#N |
| – | – | – | – | – | – | – | 5.74 ± 0.39 | 5.66 ± 0.39 | 5.58 ± 0.38 | 5.51 ± 0.38 | 5.45 ± 0.37 | 5.39 ± 0.37 | 5.33 ± 0.36 | C#CCCCCC [1-heptyne] + CCn1cc[n+](C)c1.N#C[B-](C#N)(C#N)C#N |
| – | – | – | – | – | – | – | 2.01 ± 0.14 | 1.81 ± 0.12 | 1.65 ± 0.11 | 1.5 ± 0.1 | 1.39 ± 0.09 | 1.3 ± 0.08 | 1.21 ± 0.08 | CCCO [propan-1-ol] + CCn1cc[n+](C)c1.N#C[B-](C#N)(C#N)C#N |

| SMILES | mass density ([1]; 298.15 K) [kg/m3] | mass density ([1]; 308.15 K) [kg/m3] | mass density ([1]; 318.15 K) [kg/m3] | mass density ([1]; 328.15 K) [kg/m3] | mass density ([1]; 338.15 K) [kg/m3] | mass density ([1]; 348.15 K) [kg/m3] | mass density ([1]; 358.15 K) [kg/m3] | activity coefficient ([2]; 298.15 K) | activity coefficient ([2]; 308.15 K) | activity coefficient ([2]; 318.15 K) | activity coefficient ([2]; 328.15 K) | activity coefficient ([2]; 338.15 K) | activity coefficient ([2]; 348.15 K) | activity coefficient ([2]; 358.15 K) |
| --- | --- | --- | --- | --- | --- | --- | --- | --- | --- | --- | --- | --- | --- | --- |
| Cc1cccc(C)c1 [1,3-dimethylbenzene] + CCn1cc[n+](C)c1.N#C[B-](C#N)(C#N)C#N | – | – | – | – | – | – | – | – | 2.56 ± 0.17 | 2.58 ± 0.18 | 2.6 ± 0.18 | 2.61 ± 0.18 | 2.63 ± 0.18 | 2.64 ± 0.18 |
| CCOCC [diethyl ether] + CCn1cc[n+](C)c1.N#C[B-](C#N)(C#N)C#N | – | – | – | – | – | – | – | 2.71 ± 0.18 | 2.72 ± 0.19 | 2.73 ± 0.19 | 2.74 ± 0.19 | 2.75 ± 0.19 | 2.76 ± 0.19 | 2.77 ± 0.19 |
